Measured values reported in ChEMBL document CHEMBL6087459 (J Med Chem, 2025).
Active and inactive are the calls of the source. No cut-off for these calls is given here.

Tests used:
Cryptosporidium parvum [1] = test: Antiparasitic activity against Cryptosporidium parvum Iowa oocyst infected in human HCT-8 cells assessed as reduction in asexual replication pre-infected with cells for 3 hrs followed by compound addition and measured after 48 hrs by staining based automated fluorescence microscopic analysis; type: functional, organism-based
HCT-8 [2] = test: Cytotoxicity against human HCT-8 cells assessed as reduction in cell numbers upto 50 uM incubated for 48 hrs by high-density microscopic celltiter aqueous assay; type: toxicity, cell-based; details: hct-8, 48 h
Cytochrome P450 2B6 = Cytochrome P450 2B6 (Homo sapiens, UniProt P20813); test: Inhibition of CYP2B6 (unknown origin) incubated for 20 mins by fast gradient LC-MS analysis
Homo sapiens [3] = species on record: Homo sapiens; test: Inhibition of human PDE1B at 10 uM by Eurofins kinase assay relative to control
[4] = biological target: cGMP-dependent 3',5'-cyclic phosphodiesterase (Homo sapiens) (UniProt O00408); test: Inhibition of human PDE2A1 at 10 uM by Eurofins kinase assay relative to control
[5] = biological target: cGMP-inhibited 3',5'-cyclic phosphodiesterase 3A (Homo sapiens) (UniProt Q14432); test: Inhibition of human PDE3A at 10 uM by Eurofins kinase assay relative to control
[6] = biological target: cGMP-inhibited 3',5'-cyclic phosphodiesterase 3B (Homo sapiens) (UniProt Q13370); test: Inhibition of human PDE3B at 10 uM by Eurofins kinase assay relative to control
Homo sapiens [7] = species on record: Homo sapiens; test: Inhibition of human PDE4A1A at 10 uM by Eurofins kinase assay relative to control
[8] = biological target: 3',5'-cyclic-AMP phosphodiesterase 4B (Homo sapiens) (UniProt Q07343); test: Inhibition of human PDE4B1 at 10 uM by Eurofins kinase assay relative to control
[9] = biological target: 3',5'-cyclic-AMP phosphodiesterase 4D (Homo sapiens, UniProt Q08499); test: Inhibition of human PDE4D2 at 10 uM by Eurofins kinase assay relative to control
[10] = biological target: cGMP-specific 3',5'-cyclic phosphodiesterase (Homo sapiens) (UniProt O76074); test: Inhibition of human PDE5 at 10 uM by Eurofins kinase assay relative to control
Homo sapiens [11] = species on record: Homo sapiens; test: Inhibition of human PDE6 at 10 uM by Eurofins kinase assay relative to control
[12] = biological target: High affinity 3',5'-cyclic-AMP phosphodiesterase 7A (Homo sapiens) (UniProt Q13946); test: Inhibition of human PDE7A1 at 10 uM by Eurofins kinase assay relative to control
[13] = biological target: High affinity cAMP-specific and IBMX-insensitive 3',5'-cyclic phosphodiesterase 8A (Homo sapiens) (UniProt O60658); test: Inhibition of human PDE8A1 at 10 uM by Eurofins kinase assay relative to control
[14] = biological target: cAMP and cAMP-inhibited cGMP 3',5'-cyclic phosphodiesterase 10A (Homo sapiens) (UniProt Q9Y233); test: Inhibition of human PDE10A2 at 10 uM by Eurofins kinase assay relative to control
[15] = biological target: Dual 3',5'-cyclic-AMP and -GMP phosphodiesterase 11A (Homo sapiens) (UniProt Q9HCR9); test: Inhibition of human PDE11A at 10 uM by Eurofins kinase assay relative to control
Cryptosporidium parvum [16] = test: Antiparasitic activity against Cryptosporidium parvum Iowa oocyst infected in NOD SCID gamma mouse model assessed as reduction in parasite fecal shedding at 50 mg/kg, po administered twice daily for 7 days starting from day 7 post infection and measured on day 21 by qPCR analysis; type: functional, organism-based; details: time 14.0 day
HCT-8 [17] = test: Cytotoxicity against human HCT-8 cells assessed as inhibition of cell proliferation at 25 to 50 uM incubated for 48 hrs by Celltiter aqueous assay; type: toxicity, cell-based; details: hct-8, 48 h, dose 25-50 µM
HCT-8 [18] = test: Cytotoxicity against human HCT-8 cells assessed as reduction in cell numbers at 25 uM incubated for 48 hrs by high-density microscopic celltiter aqueous assay relative to control; type: toxicity, cell-based; design: scale not given: the % may be the effect or the level left; details: hct-8, 48 h
HCT-8 [19] = test: Cytotoxicity against human HCT-8 cells assessed as reduction in cell numbers at 50 uM incubated for 48 hrs by high-density microscopic celltiter aqueous assay relative to control; type: toxicity, cell-based; design: scale not given: the % may be the effect or the level left; details: hct-8, 48 h

Sequence of High affinity cAMP-specific and IBMX-insensitive 3',5'-cyclic phosphodiesterase 8A (Homo sapiens) (O60658 whole entry): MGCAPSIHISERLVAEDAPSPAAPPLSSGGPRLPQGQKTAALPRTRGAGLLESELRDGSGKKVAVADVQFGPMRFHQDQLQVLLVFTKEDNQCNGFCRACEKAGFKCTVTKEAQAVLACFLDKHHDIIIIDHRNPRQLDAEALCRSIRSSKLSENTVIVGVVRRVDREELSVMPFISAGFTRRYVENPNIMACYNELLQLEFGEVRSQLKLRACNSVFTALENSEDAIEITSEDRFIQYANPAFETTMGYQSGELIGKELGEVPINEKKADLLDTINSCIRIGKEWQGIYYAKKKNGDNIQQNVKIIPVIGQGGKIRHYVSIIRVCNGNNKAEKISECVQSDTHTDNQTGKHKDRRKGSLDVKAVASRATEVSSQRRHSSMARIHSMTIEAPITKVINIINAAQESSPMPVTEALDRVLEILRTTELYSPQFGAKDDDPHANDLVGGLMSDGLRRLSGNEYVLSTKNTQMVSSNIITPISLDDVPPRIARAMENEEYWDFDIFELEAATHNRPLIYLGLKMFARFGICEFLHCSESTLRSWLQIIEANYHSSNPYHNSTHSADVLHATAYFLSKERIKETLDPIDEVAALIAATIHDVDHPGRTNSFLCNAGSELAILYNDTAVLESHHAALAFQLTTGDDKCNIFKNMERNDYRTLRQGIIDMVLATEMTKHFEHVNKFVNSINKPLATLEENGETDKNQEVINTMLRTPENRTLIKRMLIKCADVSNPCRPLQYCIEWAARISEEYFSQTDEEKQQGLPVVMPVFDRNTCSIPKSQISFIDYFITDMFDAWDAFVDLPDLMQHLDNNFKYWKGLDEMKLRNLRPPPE
Sequence of cGMP-inhibited 3',5'-cyclic phosphodiesterase 3B (Homo sapiens) (Q13370 whole entry, looked up): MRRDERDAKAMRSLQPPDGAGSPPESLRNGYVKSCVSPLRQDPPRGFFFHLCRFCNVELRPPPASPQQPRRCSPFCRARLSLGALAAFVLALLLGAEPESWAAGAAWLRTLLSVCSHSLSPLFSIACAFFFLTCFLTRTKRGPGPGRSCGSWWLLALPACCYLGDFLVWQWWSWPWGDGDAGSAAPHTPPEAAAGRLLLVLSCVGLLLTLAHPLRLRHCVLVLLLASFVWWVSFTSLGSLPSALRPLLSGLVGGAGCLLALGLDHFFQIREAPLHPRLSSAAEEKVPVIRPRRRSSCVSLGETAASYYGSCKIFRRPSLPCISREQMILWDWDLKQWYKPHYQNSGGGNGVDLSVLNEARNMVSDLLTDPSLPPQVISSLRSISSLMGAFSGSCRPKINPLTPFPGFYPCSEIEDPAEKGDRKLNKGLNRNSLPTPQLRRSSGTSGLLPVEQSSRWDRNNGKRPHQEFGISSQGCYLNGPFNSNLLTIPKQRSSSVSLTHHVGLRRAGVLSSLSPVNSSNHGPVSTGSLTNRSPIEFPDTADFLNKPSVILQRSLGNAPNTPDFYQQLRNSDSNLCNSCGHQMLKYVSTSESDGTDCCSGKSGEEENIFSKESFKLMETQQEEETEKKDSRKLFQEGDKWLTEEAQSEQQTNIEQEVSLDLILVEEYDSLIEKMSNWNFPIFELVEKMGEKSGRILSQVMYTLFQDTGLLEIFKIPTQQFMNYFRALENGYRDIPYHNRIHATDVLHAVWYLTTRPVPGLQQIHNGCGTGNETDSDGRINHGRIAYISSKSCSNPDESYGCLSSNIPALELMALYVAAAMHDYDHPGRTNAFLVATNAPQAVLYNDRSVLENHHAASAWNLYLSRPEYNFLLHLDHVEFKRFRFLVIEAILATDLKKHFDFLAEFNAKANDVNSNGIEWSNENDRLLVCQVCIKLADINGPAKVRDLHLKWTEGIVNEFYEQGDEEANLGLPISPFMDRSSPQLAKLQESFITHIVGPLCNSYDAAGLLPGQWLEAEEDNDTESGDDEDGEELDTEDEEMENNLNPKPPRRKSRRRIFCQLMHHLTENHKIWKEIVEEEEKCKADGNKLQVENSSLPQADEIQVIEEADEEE
Sequence of High affinity 3',5'-cyclic-AMP phosphodiesterase 7A (Homo sapiens) (Q13946 whole entry): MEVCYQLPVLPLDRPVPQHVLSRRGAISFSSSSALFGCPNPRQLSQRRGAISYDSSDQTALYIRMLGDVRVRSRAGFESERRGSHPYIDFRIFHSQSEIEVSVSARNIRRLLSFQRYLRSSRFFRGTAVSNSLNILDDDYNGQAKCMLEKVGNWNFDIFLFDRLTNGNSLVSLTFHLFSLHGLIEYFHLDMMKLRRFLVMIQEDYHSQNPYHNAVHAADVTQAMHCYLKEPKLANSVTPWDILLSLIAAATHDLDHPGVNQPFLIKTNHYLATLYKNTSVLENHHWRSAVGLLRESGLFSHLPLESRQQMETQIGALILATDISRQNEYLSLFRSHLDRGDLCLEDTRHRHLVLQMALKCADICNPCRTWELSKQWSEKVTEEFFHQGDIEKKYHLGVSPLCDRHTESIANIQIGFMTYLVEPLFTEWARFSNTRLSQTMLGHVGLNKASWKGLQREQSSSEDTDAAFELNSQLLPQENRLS
Sequence of cGMP-inhibited 3',5'-cyclic phosphodiesterase 3A (Homo sapiens) (Q14432 whole entry): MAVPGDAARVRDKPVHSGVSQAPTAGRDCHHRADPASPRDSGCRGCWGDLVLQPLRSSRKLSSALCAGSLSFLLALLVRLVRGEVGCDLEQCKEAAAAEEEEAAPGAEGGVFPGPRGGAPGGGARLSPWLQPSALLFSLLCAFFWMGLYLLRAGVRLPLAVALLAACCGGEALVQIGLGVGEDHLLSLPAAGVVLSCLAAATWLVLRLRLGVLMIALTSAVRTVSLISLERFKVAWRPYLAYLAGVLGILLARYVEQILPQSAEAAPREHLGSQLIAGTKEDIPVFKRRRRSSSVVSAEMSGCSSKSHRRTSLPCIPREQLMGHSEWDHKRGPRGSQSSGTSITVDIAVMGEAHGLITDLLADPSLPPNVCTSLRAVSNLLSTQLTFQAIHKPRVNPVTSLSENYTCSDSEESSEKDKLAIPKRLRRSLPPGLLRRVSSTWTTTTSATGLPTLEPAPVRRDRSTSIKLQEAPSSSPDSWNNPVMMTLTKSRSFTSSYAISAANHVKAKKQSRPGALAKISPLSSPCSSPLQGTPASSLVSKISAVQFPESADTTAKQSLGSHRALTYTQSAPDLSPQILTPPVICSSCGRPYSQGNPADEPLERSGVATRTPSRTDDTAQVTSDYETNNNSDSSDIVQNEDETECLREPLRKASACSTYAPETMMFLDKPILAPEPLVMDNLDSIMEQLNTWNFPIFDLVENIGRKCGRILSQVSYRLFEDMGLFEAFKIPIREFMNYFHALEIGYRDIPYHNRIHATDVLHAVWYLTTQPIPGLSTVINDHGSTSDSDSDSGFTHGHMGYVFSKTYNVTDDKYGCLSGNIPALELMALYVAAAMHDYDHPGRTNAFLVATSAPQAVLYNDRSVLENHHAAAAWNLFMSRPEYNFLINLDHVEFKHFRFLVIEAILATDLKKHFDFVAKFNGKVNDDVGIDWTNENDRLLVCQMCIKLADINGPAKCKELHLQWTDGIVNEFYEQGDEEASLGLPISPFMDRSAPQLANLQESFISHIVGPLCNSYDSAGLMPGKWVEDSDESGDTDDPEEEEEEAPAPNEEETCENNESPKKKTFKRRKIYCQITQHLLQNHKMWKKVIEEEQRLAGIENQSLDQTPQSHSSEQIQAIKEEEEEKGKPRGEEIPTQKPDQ
Sequence of cGMP-dependent 3',5'-cyclic phosphodiesterase (Homo sapiens) (O00408 whole entry): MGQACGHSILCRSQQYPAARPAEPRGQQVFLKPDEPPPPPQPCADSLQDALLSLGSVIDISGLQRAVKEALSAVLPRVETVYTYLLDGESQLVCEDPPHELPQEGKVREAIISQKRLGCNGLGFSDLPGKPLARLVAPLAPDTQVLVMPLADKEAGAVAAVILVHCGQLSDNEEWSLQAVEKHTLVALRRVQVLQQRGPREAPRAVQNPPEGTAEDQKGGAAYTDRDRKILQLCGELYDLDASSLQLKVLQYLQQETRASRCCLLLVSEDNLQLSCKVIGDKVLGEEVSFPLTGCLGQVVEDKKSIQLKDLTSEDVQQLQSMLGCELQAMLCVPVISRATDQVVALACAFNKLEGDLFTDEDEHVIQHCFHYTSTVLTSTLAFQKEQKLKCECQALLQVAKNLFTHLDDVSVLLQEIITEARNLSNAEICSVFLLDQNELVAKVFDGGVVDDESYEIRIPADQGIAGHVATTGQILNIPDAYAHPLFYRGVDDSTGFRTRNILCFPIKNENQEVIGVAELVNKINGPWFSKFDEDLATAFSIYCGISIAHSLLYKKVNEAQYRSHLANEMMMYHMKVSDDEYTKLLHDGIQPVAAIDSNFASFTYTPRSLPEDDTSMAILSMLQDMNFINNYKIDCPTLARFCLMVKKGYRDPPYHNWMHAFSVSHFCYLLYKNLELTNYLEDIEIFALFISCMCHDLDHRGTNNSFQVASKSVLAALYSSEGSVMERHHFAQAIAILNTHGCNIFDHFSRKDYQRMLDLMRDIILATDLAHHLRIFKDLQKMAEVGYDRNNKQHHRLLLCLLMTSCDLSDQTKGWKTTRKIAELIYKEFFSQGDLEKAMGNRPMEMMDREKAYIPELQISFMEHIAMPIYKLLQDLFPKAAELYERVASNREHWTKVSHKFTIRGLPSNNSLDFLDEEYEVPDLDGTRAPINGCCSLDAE
Sequence of Cytochrome P450 2B6 (P20813 whole entry): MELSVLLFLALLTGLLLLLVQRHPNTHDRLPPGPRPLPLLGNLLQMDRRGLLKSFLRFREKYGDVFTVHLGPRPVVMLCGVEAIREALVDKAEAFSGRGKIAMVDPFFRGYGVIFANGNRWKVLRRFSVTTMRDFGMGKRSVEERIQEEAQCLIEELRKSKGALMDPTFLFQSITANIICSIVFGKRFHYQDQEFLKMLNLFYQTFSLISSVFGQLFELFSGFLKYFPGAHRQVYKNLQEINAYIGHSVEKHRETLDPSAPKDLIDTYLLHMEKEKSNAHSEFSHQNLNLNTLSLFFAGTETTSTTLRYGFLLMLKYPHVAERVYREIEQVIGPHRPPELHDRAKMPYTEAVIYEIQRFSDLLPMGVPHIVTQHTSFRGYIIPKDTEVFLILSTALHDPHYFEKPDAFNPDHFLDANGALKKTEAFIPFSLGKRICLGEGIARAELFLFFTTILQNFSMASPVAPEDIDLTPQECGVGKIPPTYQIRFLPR

| Compound | EC50 (Cryptosporidium parvum [1]) | Activity (HCT-8 [2]) | further results |
| --- | --- | --- | --- |
| CCc1nn(C)c2nc(-c3ccc(Cl)c(Cl)c3)nc(NCc3ccc(F)cc3)c12 | 21 µM | Non-toxic |  |
| CCc1nn(C)c2nc(-c3ccc(OC)c(OC)c3)nc(NCc3ccc(F)cc3)c12 | 7.2 µM | Non-toxic |  |
| CCc1nn(C)c2nc(-c3ccc(C4CCC(C(=O)O)CC4)cc3)nc(NCc3ccc(F)cc3)c12 (stereo not drawn) | 4.4 µM | Non-toxic |  |
| CCc1nn(C)c2nc(-c3ccc(C(=O)O)c(F)c3)nc(NCc3ccc(F)cc3)c12 | 3.4 µM | Non-toxic |  |
| CCc1nn(C)c2nc(-c3ccc(S(C)(=O)=O)cc3)nc(NCc3ccc(F)cc3)c12 | 5.5 µM | Non-toxic |  |
| CCc1nn(C)c2nc(-c3ccc(N4CCC(C(=O)O)CC4)cc3)nc(NCc3ccc(F)cc3)c12 | 11 µM | Non-toxic |  |
| CCc1nn(C)c2nc(C3=CCC(C(=O)O)CC3)nc(NCc3ccc(F)cc3)c12 (stereo not drawn) | 1.8 µM | Non-toxic |  |
| CCc1nn(C)c2nc(-c3ccc(-c4nnn[nH]4)cc3)nc(NCc3ccc(F)cc3)c12 | 5.8 µM | Non-toxic |  |
| CCOC(=O)c1ccc(-c2nc(NCc3ccc(F)cc3)c3c(CC)nn(C)c3n2)cc1 | > 25 µM | Non-toxic |  |
| CCc1nn(C)c2nc(-c3ccc(C#N)cc3)nc(NCc3ccc(F)cc3)c12 | > 25 µM | Non-toxic |  |
| CCc1nn(C)c2nc(-c3ccc(C(=O)O)nc3)nc(NCc3ccc(F)cc3)c12 | 4.7 µM | Non-toxic |  |
| COC(=O)[C@H](c1ccccc1Cl)N1CCc2sccc2C1 [CLOPIDOGREL] |  |  | IC50 (Cytochrome P450 2B6): 0.2 µM |
| CCc1nn(C)c2nc(C(=O)O)nc(NCc3ccc(F)cc3)c12 | > 50 µM | Non-toxic |  |
| CCc1nn(C)c2nc(-c3cncnc3)nc(NCc3ccc(F)cc3)c12 | > 50 µM | Non-toxic |  |
| CCc1nn(C)c2nc(-c3ccc4c(c3)OCO4)nc(NCc3ccc(F)cc3)c12 | > 50 µM | Non-toxic |  |
| CCc1nn(C)c2nc(-c3ccc(C(N)=O)cc3)nc(NCc3ccc(F)cc3)c12 | 27 µM | Non-toxic |  |
| CCc1nn(C)c2nc(-c3cccc(S(N)(=O)=O)c3)nc(NCc3ccc(F)cc3)c12 | 2.5 µM | Non-toxic |  |
| CCc1nn(C)c2nc(-c3ccc(P(=O)(O)O)cc3)nc(NCc3ccc(F)cc3)c12 | > 50 µM | Non-toxic |  |
| CCc1nn(C)c2nc(-c3ccncc3)nc(NCc3ccc(F)cc3)c12 | 8.6 µM | Non-toxic |  |
| CCc1nn(C)c2nc(-c3ccc4c(c3)CNC4=O)nc(NCc3ccc(F)cc3)c12 | > 50 µM | Non-toxic |  |
| CCc1nn(C)c2nc(-c3ccc(CO)cc3)nc(NCc3ccc(F)cc3)c12 | 16 µM | Non-toxic |  |

| Compound | EC50 (Cryptosporidium parvum [1]) | Activity (HCT-8 [2]) | further results |
| --- | --- | --- | --- |
| CCc1nn(C)c2nc(-c3ccc(Nc4ccc(C(=O)O)cn4)cc3)nc(NCc3ccc(F)cc3)c12 | 2.9 µM | Non-toxic |  |
| CCc1nn(C)c2nc(-c3ccc(CC(=O)O)cc3)nc(NCc3ccc(F)cc3)c12 | 9.5 µM | Non-toxic |  |
| CCc1nn(C)c2nc(-c3ccc(OC)cc3)nc(NCc3ccc(F)cc3)c12 | 15 µM | Non-toxic |  |
| CCc1nn(C)c2nc(-c3c(C)noc3C)nc(NCc3ccc(F)cc3)c12 | 4.5 µM | Non-toxic |  |
| CCc1nn(C)c2nc(CCC(=O)O)nc(NCc3ccc(F)cc3)c12 | 9.3 µM | Non-toxic |  |
| CCc1nn(C)c2nc(-c3cccc(OC)c3)nc(NCc3ccc(F)cc3)c12 | 15 µM | Non-toxic |  |
| CCc1nn(C)c2nc(-c3ccc(B(O)O)cc3)nc(NCc3ccc(F)cc3)c12 | 0.78 µM | Non-toxic | inhibition (Homo sapiens [3]): 31%; inhibition [4]: 95%; inhibition [5]: 62%; inhibition [6]: 45%; inhibition (Homo sapiens [7]): 93%; inhibition [8]: 96%; inhibition [9]: 91%; inhibition [10]: 73%; inhibition (Homo sapiens [11]): 98%; inhibition [12]: 62%; inhibition [13]: 29%; inhibition [14]: 24%; inhibition [15]: 82%; Activity (Cryptosporidium parvum [16]): Active |
| CC(=O)Oc1ccccc1C(=O)Nc1ncc([N+](=O)[O-])s1 [NITAZOXANIDE] |  | Non-toxic |  |
| CCc1nn(C)c2nc(-c3ccccc3OC)nc(NCc3ccc(F)cc3)c12 | 7.7 µM | Non-toxic |  |
| CCc1nn(C)c2nc(-c3ccc4c(c3)COC4=O)nc(NCc3ccc(F)cc3)c12 | > 50 µM | Non-toxic |  |
| CCc1nn(C)c2nc(-c3ccccc3)nc(NCc3ccc(F)cc3)c12 | 16 µM | Non-toxic |  |
| CCc1nn(C)c2ncnc(NCc3ccc(F)cc3)c12 | > 50 µM | Non-toxic |  |
| CCc1nn(C)c2nc(-c3ccc(F)c(C(=O)O)c3)nc(NCc3ccc(F)cc3)c12 | 5.2 µM | Non-toxic |  |
| CCc1nn(C)c2nc(-c3ccc4c(O)n[nH]c4c3)nc(NCc3ccc(F)cc3)c12 | 6.1 µM |  | Activity (HCT-8 [17]): Toxic; Activity (HCT-8 [18]): 78%; Activity (HCT-8 [19]): 89% |
| CCc1nn(C)c2nc(-c3ccc4c(c3)COB4O)nc(NCc3ccc(F)cc3)c12 |  | Non-toxic | inhibition (Homo sapiens [3]): -7.2%; inhibition [4]: 32%; inhibition [5]: 17%; inhibition [6]: 8%; inhibition (Homo sapiens [7]): 54%; inhibition [8]: 73%; inhibition [9]: 27%; inhibition [10]: 80%; inhibition (Homo sapiens [11]): 63%; inhibition [12]: 23%; inhibition [13]: 20%; inhibition [14]: -5.5%; Activity (Cryptosporidium parvum [16]): Active |
| CCc1nn(C)c2nc(-c3cccc(C(=O)O)c3)nc(NCc3ccc(F)cc3)c12 | 1.2 µM | Non-toxic |  |
| CCOC(=O)c1cccc(-c2nc(NCc3ccc(F)cc3)c3c(CC)nn(C)c3n2)c1 | 5.5 µM | Non-toxic |  |
| CCc1nn(C)c2nc(-c3ccc(C(=O)N4CCNCC4)cc3)nc(NCc3ccc(F)cc3)c12 | 5.7 µM | Non-toxic |  |
| CCc1nn(C)c2nc(-c3ccc4c(O)nn(C)c4c3)nc(NCc3ccc(F)cc3)c12 | 3 µM | Non-toxic |  |
| CCc1nn(C)c2nc(-c3ccc(O)cc3)nc(NCc3ccc(F)cc3)c12 | 5 µM | Non-toxic |  |
